Entries after “also recorded” stand apart in the source; their conditions may differ. Bridge positions count the residues as written; N and C are the ends. Peptide text beside a SMILES is read from it.
Experiments:
[1] = type: in vitro ADME
Method: (§1) The potency of test peptides to stimulate cGMP synthesis in T84 cells was assayed by a published procedure (Shailubhai et al. 2000). Briefly, confluent monolayers of T-84 cells in 24-well plates were washed twice with 250 μl of DMEM containing 50 mM HEPES (pH 7.4), pre-incubated at 37° C. for 10 min with 250 μl of DMEM containing 50 mM HEPES (pH 7.4) and 1 mM isobutylmethylxanthine (IBMX), followed by incubation with test peptide for 30 min. The medium was aspirated, and the reaction was terminated by the addition of 3% perchloric acid. Following centrifugation, and neutralization with 0.1 N NaOH, the resulting supernatant was used directly for measurements of intracellular cGMP using an ELISA kit (Caymen Chemical, Ann Arbor, Mich.). Results are expressed as pmol of cGMP/mg of protein in the cell extracts.
(§2) Plecanatide and SP-333 were incubated in simulated intestinal fluid (SIF) for 6-24 h. Inactivated SIF was used as a control. Following the treatment, samples were analyzed by HPLC by cGMP production in T84 cells. […] The active metabolite, SP-338 was characterized by MS and MS/MS and identified to be formed via removal of carboxyl terminal leucine possibly due to cleavage by carboxypeptidases.

[2] = system: DSS-induced colitis; experiment: DSS-induced colitis in BDF-1 mice; type: in vivo, mouse
Method: To evaluate the efficacy of plecanatide in DSS induced colitis model, 48 BDF-1 mice were divided into 8 treatment groups (6 mice/group). One group was not exposed to DSS (untreated control) and groups 2-8 were treated with 5% DSS in the drinking water on day 0. Plecanatide or SP-333 solutions formulated in 0.1M phosphate buffer (pH 7) was administered by oral gavage, once a day at 0.005, 0.05, 0.5, 2.5 and 5 mg/kg, from study day −1 (i.e. prior to initiation of DSS treatment) through day 6 for SP-333 or day 7 for plecanatide. DSS treatment was initiated on day 0 for groups 2-8 until the end of the study. Sulfasalazine (80 mg/kg) or 5-ASA (100 mg/kg) was used as positive control and was administered daily. Mice were sacrificed on day 7. The large intestine was removed and weighed. Distal section of the large intestine was collected and fixed as described above.
(§3) Disease activity index (DAI) was calculated by scoring in-life parameters starting from day −1 until the end of the study. Once daily, all mice were weighed and assessed for stool consistency, and the presence of overt blood in the stool or around the anus essentially similar to that reported earlier. Colitis severity was assessed by histopathological analyses of H&E stained tissue sections (Hegazi et al., 2005; Dave et al., 2009) employing the following criteria: (score 0) normal appearing crypts; (score 1) abnormal crypt pathology without ulceration; (score 2) depleted crypts with ulceration; (score 3) 20-50% depleted crypts and increased ulceration; (score 4) >50% depleted crypts with substantial ulceration and (score 5) totally ulcerated/inflamed colon with no crypts remaining. All slides were scored in a blinded manner. Colitis severity in TCRα−/− model was scored as previously described^25. All slides were scored in a blinded manner. Disease activity index (DAI) was calculated by assessing body weight, stool consistency, and the presence of overt blood in stools or around the anus, essentially similar to that reported earlier (Hamamoto et al., 1999).

[3] = biological target: T1, GC-C Receptor (Homo sapiens, UniProt P25092); experiment: Cyclic GMP stimulation assay in T84 cells; type: cell-based
T1 construct: endogenous in cells; host or cells: T84 human colon carcinoma cells
T1 sequence (P25092 24-1073): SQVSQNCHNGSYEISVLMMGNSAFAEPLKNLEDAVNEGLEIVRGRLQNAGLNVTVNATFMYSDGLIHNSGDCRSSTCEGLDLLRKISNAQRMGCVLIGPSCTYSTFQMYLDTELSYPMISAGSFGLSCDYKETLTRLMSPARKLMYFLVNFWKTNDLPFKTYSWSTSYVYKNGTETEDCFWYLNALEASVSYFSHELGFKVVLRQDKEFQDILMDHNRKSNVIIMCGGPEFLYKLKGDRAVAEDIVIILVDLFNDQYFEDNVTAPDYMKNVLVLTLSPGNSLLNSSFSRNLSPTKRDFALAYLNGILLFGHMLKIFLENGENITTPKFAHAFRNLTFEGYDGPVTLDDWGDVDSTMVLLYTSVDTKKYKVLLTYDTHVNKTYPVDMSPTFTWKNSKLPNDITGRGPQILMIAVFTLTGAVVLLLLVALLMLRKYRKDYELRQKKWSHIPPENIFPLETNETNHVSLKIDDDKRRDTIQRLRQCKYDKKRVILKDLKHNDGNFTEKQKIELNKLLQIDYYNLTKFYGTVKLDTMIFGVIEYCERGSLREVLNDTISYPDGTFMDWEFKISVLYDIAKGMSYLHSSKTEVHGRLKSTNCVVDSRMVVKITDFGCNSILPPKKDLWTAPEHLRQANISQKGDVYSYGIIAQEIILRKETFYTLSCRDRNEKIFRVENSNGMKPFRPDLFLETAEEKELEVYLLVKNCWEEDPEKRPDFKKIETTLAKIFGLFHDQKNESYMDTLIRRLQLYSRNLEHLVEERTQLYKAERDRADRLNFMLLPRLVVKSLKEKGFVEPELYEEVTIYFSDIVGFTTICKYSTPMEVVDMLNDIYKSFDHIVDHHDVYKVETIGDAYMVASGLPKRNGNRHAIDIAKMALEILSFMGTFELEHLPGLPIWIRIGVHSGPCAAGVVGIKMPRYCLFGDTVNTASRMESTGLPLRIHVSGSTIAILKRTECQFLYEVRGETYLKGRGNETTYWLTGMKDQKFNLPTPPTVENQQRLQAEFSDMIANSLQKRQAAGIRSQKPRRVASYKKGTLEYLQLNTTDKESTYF
Method: as §1

[4] = system: TNBS-induced colitis; experiment: TNBS-induced colitis in BDF-1 mice; type: in vivo, mouse
Method: Mouse strains BDF1 and BALB/c were used to examine the efficacy of plecanatide in TNBS induced colitis. The procedures used were as previously described (Hegazi et al., 2005; Dave et al., 2009). Briefly, to induce colitis in specific pathogen-free 2-4 months old female BALB/c mice, 0.5 mg of TNBS in 50% ethanol was slowly administered into the lumen of the colon via a 3.5 F catheter fitted onto a 1-ml syringe (total injection volume 100 μl). Plecanatide formulated in PBS was administered by oral gavage for a total of 7 days, with the first dose given one day prior to TNBS challenge. Mice were observed daily for body weight, food consumption and for signs of any apparent toxicity, rectal bleeding or prolapse. After 7 days of treatment, GI tissue collection, fixation and histopathological scoring were performed essentially as described previously (Sheikh et al., 2011). GI tissues were also collected and immediately processed for explant culture and cytokine expression as described below.
To induce colitis in BDF1 mice, a total of 90, 10-12 week old, H. pylori free male mice were used. Animals were randomized into 9 groups. TNBS was rectally administered as described above in a total injection volume of 100 μl. Oral administration of PBS formulated plecanatide (0.0005-50 mg/kg), animal monitoring and collection of GI tissues was performed as described above. Daily administration of plecanatide was continued through day 6, when the mice were euthanized. […] Distal sections were fixed, stained with H&E, and evaluated for histopathology and visual severity scores (Hegazi et al., 2005; Dave et al., 2009). […]
as §3

[5] = system: TNBS-induced colitis; experiment: TNBS-induced colitis in BALB/c mice; type: in vivo, mouse; details: plecanatide 0.5 and 2.5 mg/kg oral once daily 7 days; p<0.05; preliminary study
Method: Mouse strains BDF1 and BALB/c were used to examine the efficacy of plecanatide in TNBS induced colitis. The procedures used were as previously described (Hegazi et al., 2005; Dave et al., 2009). Briefly, to induce colitis in specific pathogen-free 2-4 months old female BALB/c mice, 0.5 mg of TNBS in 50% ethanol was slowly administered into the lumen of the colon via a 3.5 F catheter fitted onto a 1-ml syringe (total injection volume 100 μl). Plecanatide formulated in PBS was administered by oral gavage for a total of 7 days, with the first dose given one day prior to TNBS challenge. […]
as §3, with “All slides were scored in a blinded manner. Colitis severity in TCRα−/− model was scored as previously described^25. All slides were scored in a blinded manner. Disease activity index (DAI) was calculated by assessing body weight, stool consistency, and the presence of overt blood in stools or around the anus, essentially similar to that reported earlier (Hamamoto et al., 1999).” left out

[6] = system: colonic explants; experiment: Explant cultures of colon tissue from TNBS-induced colitis BALB/c mice, cytokine ELISA; type: in vivo, mouse; details: 24 h, vs vehicle-treated explants
Method: (§4) Colonic tissue fragments (0.5 g dry weight) from the TNBS-induced colitis mice and TCRα^−/− knockout mice were processed as previously described (Hegazi et al., 2005). Tissue fragment supernatants were collected after 24 h for cytokine ELISAs. Murine immunoassay kits (R&D System) were used according to the manufacturer's instructions for IL-12p40, IL-23 and TNF. Linco Cytokine-16 plex Mouse ELISA was performed for MIP-1α, RANTES, IL-10 and IL-17 (Millipore) as per manufacturer's instructions.
(§5) Murine IL-12 p40, IL-1β, TNF, IFN-γ, immunoassay kits (R&D System, MN, USA) were used according to the manufacturer's instructions. Linco Cytokine-16 plex Mouse ELISA was performed for MIP-1α, RANTES, IL-10, TNF and IL-17 (Millipore, Billerica, Mass.) as per manufacturer's instructions.

[7] = system: colonic explants; experiment: Explant cultures of colon tissue from TCRα−/− mice, cytokine and chemokine ELISA; type: in vivo, mouse; details: explant culture 24 h, plecanatide treated mice
Method: as §4, §5

[8] = system: colitis in TCRα −/− mice; experiment: Spontaneous colitis in TCRα−/− mice; type: in vivo, mouse; details: plecanatide 0.5 and 2.5 mg/kg oral daily for 14 days; vs vehicle
Method: TCRα^−/− mice were matched for age and sex in all experiments. 16 week old TCRα−/− mice were treated with plecanatide at 0.5 or 2.5 mg/kg/day or PBS vehicle control by oral gavage for 14 days (6 mice per group). Mice were sacrificed 12 h after the final dose, and GI tissues were collected for experimental analyses. Colitis severity in TCRα^−/− model was scored as described (Berg et al., 1996).
as §3, with “Disease activity index (DAI) was calculated by assessing body weight, stool consistency, and the presence of overt blood in stools or around the anus, essentially similar to that reported earlier (Hamamoto et al., 1999).” left out

[9] = system: colon dysplasia; details: oral plecanatide; Chang et al., 2014; Shailubhai et al., 2012; cited from earlier work
[10] = type: in vitro ADME; remark: listed apart in the source
Method: as §2

For `CC(C)C[C@H](NC(=O)[C@@H]1CSSC[C@@H]2NC(=O)[C@H](CC(C)C)NC(=O)[C@H](CCC(=O)O)NC(=O)[C@@H](NC(=O)[C@H](CCC(=O)O)NC(=O)[C@H](CC(=O)O)NC(=O)[C@@H](N)CC(N)=O)CSSC[C@H](NC(=O)[C@H](C)NC(=O)[C@H](C(C)C)NC(=O)[C@H](CC(N)=O)NC(=O)[C@H](C(C)C)NC2=O)C(=O)N[C@@H]([C@@H](C)O)C(=O)NCC(=O)N1)C(=O)O` [plecanatide, Asn^1-Asp^2-Glu^3-Cys^4-Glu^5-Leu^6-Cys^7-Val^8-Asn^9-Val^10-Ala^11-Cys^12-Thr^13-Gly^14-Cys^15-Leu^16] (H-NDECELCVNVACTGCL-OH; disulfide 4-12, 7-15 (inferred)), the activity retained [1] was roughly 70%, the biological activity lost [1] was roughly 35% and the “DSS induced colitis severity score” value ([2]; plecanatide 0.005 mg/kg oral gavage once a day, vs untreated controls p=0.02) was “significantly lower; also recorded: as effective as sulfasalazine (80 mg/kg)”. The “amelioration of DSS-induced colitis at higher doses” value ([2]; plecanatide doses higher than 0.005 mg/day (so in the source)) was “did not produce incremental effect”, the “colitis severity compared with reference compound sulfasalazine (80 mg/kg)” value ([2]; plecanatide, DSS model) was “superior to treatment with reference compound” and the “potency to stimulate cGMP in T84 cells” value [3] was “dose dependent increase in cGMP; also recorded: comparable to that of SP-333”. For the same molecule, the colitis severity ([4]; plecanatide 0.05 mg/kg and higher doses oral, vs untreated controls) was “significantly lower; also recorded: statistically significant reduction”, the colitis severity ([4]; plecanatide doses under 0.005 mg/kg oral) was “ineffective” and the effective dose-range ([4]; plecanatide oral, TNBS model) was 0.05 to 0.5 mg/kg. For the same molecule, the “colitis severity compared with reference compound sulfasalazine (80 mg/kg)” value ([4]; plecanatide, TNBS model) was “superior to treatment with reference compound”, the colitis scores [5] was “significantly lower; also recorded: effectively ameliorated” and the “suppression of secretion of IL-12p40” value [6] was 37%. For the same molecule, the “suppression of secretion of IL-23” value [6] was 84%, the “suppression of secretion of TNF” value [6] was 67% and the “levels of secreted IL-10” value [7] was “increased”. The “production of IL-17” value [7] was “considerably suppressed”, the “production of MIP-1α” value [7] was “considerably suppressed” and the “production of RANTES” value [7] was “considerably suppressed”. The colitis scores [8] was “reduced”, the colon dysplasia [9] was “considerably reduced” and the “HPLC analysis after digestion with SIF” value [10] was “completely converts plecanatide into a shorter peptide”. The “time over which intact peptide was stable, HPLC” value [10] was “up to 6 h”.
